Results on four compounds are retold here after article PMC4329833 (Journal of Medicinal Chemistry, 2014).

Data set [1] has as its target T1, rat nNOS (Rattus norvegicus, UniProt P29476). The data set is described as follows: biochemical.
The next data set deals with CYP3A4 (Homo sapiens, UniProt P08684). The data set is described as follows: CYP inhibition assay in human liver microsomes. The following applies: 10 μM. It is filed as in vitro ADME.
For a further data set, the target named is CYP2D6 (Homo sapiens, UniProt P10635). The data set is described as follows: CYP inhibition assay in human liver microsomes. The class given is in vitro ADME. The following applies: 10 μM. On the technique in general: Liver microsomes are a subcellular fraction often used to study metabolism.
The target of the next data set is T2, serotonin 5-HT1A (Homo sapiens, UniProt P08908).
T2 sequence (P08908 1-422): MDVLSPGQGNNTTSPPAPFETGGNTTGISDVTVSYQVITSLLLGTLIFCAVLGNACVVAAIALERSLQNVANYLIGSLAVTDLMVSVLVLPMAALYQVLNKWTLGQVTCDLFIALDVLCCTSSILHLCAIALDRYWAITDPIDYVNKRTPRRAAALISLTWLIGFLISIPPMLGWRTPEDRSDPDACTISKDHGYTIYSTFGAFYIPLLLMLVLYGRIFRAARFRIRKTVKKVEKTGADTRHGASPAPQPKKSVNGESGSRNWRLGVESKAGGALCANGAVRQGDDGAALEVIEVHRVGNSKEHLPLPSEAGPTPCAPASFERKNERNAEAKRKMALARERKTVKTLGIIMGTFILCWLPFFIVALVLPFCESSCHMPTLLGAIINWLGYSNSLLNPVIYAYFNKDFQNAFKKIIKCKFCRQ
The data set is described as follows: NIMH PDSP CNS receptor radioligand binding.

The next data set addresses serotonin 5-HT2A (Homo sapiens, UniProt P28223). The data set is described as follows: NIMH PDSP CNS receptor radioligand binding.
Another data set has as its target dopamine D3 receptor (Homo sapiens, UniProt P35462). The data set is described as follows: NIMH PDSP CNS receptor radioligand binding.
In a further data set the target is CYP2C19 (Homo sapiens, UniProt P33261). The data set is described as follows: CYP inhibition assay in human liver microsomes. It is filed as in vitro ADME. The conditions noted are these: 10 μM.
In data set [2] the target is T1, rat nNOS. The conditions noted are these: ratio of respective Ki values (eNOS vs rnNOS).
The conditions of data set [3]: cited from earlier work.

T1 sequence (P29476 whole entry): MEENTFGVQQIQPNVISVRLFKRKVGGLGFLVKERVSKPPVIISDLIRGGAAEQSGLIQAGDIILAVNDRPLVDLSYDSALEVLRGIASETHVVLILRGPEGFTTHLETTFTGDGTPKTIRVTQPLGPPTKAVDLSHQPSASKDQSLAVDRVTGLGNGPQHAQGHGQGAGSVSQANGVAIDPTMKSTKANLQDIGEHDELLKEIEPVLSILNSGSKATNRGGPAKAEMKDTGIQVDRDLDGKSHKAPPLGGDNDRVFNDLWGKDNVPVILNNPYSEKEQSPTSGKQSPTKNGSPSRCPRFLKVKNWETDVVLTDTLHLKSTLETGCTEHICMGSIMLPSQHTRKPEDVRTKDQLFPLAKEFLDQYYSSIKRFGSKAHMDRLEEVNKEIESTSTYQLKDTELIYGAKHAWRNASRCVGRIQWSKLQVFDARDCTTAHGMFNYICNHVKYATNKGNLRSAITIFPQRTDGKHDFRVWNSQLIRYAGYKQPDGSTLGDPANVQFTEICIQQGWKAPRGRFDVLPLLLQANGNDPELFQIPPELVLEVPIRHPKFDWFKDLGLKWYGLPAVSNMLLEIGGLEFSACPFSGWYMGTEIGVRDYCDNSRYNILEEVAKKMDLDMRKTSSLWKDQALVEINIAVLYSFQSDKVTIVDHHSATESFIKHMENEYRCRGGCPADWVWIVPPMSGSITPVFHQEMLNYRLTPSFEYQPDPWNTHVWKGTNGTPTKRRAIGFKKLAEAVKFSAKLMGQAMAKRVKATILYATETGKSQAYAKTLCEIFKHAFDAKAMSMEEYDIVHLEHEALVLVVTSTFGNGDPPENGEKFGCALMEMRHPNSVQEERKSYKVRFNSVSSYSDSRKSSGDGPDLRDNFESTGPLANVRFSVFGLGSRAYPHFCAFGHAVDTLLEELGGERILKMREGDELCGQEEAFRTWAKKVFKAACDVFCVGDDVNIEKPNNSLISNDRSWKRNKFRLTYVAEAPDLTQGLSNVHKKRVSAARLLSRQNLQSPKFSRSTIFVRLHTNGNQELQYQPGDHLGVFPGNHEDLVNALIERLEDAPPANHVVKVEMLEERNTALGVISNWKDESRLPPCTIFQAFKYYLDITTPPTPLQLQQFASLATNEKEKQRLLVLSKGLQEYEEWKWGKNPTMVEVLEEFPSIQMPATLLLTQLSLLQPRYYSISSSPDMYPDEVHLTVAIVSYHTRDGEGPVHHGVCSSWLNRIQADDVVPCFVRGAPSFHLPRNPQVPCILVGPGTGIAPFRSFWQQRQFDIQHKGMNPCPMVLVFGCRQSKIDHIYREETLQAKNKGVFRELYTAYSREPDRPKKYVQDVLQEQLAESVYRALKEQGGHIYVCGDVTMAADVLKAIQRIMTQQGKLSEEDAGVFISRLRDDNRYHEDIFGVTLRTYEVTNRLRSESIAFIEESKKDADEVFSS
Sequence of dopamine D3 receptor (P35462 whole entry, species assumed): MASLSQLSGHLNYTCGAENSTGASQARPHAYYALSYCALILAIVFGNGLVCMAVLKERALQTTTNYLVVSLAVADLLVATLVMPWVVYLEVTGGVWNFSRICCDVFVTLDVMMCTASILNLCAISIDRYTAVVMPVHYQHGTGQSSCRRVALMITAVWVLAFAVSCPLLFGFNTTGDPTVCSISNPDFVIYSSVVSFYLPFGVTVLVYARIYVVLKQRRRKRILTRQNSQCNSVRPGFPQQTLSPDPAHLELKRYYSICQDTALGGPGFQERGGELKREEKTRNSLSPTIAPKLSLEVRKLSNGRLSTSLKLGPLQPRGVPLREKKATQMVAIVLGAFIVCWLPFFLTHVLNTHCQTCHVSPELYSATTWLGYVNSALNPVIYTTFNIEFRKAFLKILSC
Sequence of serotonin 5-HT2A (P28223 whole entry): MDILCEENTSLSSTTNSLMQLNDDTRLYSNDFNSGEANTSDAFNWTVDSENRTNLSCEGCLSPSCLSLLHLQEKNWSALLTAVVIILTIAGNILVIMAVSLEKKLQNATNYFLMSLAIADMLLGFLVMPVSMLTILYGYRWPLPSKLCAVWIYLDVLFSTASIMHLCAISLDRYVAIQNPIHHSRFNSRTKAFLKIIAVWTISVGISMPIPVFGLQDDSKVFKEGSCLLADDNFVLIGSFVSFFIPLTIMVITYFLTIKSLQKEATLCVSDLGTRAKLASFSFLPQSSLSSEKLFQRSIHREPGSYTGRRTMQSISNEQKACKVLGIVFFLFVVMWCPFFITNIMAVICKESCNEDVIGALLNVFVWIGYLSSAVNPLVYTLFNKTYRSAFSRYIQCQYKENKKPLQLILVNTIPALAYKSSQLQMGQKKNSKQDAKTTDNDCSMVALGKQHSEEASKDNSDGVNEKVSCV
Sequence of CYP2C19 (P33261 whole entry): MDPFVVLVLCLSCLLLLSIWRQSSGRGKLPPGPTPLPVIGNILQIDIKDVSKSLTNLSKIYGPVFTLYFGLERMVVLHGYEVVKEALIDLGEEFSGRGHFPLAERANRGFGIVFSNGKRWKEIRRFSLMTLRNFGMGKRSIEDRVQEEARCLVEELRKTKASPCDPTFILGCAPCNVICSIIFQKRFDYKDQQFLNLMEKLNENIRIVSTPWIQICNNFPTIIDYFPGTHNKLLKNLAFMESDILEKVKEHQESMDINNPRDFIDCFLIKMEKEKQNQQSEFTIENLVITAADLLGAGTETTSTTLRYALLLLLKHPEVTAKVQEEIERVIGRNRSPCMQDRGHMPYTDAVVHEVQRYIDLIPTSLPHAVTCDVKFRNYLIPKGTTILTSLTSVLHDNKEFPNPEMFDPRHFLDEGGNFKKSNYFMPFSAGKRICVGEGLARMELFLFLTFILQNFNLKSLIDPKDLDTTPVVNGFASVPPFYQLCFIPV
Sequence of CYP2D6 (P10635 whole entry): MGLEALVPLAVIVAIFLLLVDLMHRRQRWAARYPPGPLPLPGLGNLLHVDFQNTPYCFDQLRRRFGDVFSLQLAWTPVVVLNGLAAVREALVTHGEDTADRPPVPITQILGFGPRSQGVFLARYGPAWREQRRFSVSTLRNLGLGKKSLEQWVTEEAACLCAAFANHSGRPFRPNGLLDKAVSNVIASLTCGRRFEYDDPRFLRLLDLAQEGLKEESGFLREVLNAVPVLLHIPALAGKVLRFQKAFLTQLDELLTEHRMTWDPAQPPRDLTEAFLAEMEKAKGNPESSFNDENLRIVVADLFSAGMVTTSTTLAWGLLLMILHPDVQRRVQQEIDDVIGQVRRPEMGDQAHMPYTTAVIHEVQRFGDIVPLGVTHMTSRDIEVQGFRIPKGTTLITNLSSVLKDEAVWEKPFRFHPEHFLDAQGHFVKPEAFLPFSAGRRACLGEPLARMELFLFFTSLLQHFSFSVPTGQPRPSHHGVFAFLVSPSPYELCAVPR
Sequence of CYP3A4 (P08684 whole entry): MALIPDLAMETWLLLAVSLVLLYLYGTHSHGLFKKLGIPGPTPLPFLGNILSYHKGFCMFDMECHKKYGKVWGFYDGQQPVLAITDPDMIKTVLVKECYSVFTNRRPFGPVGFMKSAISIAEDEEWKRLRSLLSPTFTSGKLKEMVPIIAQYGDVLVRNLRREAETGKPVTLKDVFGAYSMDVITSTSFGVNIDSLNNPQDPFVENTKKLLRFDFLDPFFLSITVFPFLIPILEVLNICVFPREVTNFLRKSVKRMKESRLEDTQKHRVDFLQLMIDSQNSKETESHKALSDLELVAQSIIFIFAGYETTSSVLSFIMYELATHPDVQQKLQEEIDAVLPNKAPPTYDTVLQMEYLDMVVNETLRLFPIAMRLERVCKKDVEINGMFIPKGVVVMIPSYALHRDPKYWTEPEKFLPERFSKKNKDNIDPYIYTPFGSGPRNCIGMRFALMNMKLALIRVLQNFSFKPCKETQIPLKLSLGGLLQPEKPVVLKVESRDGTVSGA

For `Fc1cccc(CCN2CCN(c3ccnc(-n4ccnc4)n3)CC2)c1` [Compound 4, 4-[4-(3-Fluorophenethyl)-1-piperazyl]-2-(1H-imidazol-1-yl)pyrimidine], the Ki on rat nNOS [1] is ~5000 nM.

As for `Cl.Fc1cccc(CCCNCCc2ccnc(-n3ccnc3)n2)c1` [Compound 9, N-2-[2-(1H-Imidazol-1-yl)pyrimidin-4-yl]ethyl-3-(3-fluorophenyl)propan-1-amine Dihydrochloride], the “decrease of CYP3A4 activity” value on CYP3A4 was “more than 70%”. Also, on CYP2D6, the “decrease of CYP2D6 activity” value is given as “more than 70%”. For the same compound, the Ki at serotonin 5-HT1A, on serotonin 5-HT2A and at dopamine D3 receptor was ≥ 500 nM each time. In addition, on CYP2C19, the “decrease of CYP2C19 activity” value is “more than 70%”.

As to `Cl.Fc1cccc(CCNCCNc2ccnc(-n3ccnc3)n2)c1` [Compound 5, N^1-[2-(1H-Imidazol-1-yl)pyrimidin-4-yl]-N^2-(3-fluorophenethyl)ethane-1,2-diamine Trihydrochloride], the selectivity n/e at rat nNOS [2] is recorded as 100.

Regarding `c1c[nH]cn1` [imidazole], the “pKa of conjugate acid” value in data set [3] is 6.9.

Usually Ki stands for a dissociation constant, usually derived from enzyme kinetics or from competition with a known ligand. Low values mean tighter binding, high ones weaker binding.
